{"source": "patent US20030158254A1", "about": "“Engineering absorption of therapeutic compounds via colonic transporters” (XenoPort, Inc., priority 2002, published 2003)", "key": {"[1]": {"molecular_target": "T1, hSMVT (Homo sapiens, UniProt Q9Y289)", "T1 sequence (Q9Y289 1-635)": "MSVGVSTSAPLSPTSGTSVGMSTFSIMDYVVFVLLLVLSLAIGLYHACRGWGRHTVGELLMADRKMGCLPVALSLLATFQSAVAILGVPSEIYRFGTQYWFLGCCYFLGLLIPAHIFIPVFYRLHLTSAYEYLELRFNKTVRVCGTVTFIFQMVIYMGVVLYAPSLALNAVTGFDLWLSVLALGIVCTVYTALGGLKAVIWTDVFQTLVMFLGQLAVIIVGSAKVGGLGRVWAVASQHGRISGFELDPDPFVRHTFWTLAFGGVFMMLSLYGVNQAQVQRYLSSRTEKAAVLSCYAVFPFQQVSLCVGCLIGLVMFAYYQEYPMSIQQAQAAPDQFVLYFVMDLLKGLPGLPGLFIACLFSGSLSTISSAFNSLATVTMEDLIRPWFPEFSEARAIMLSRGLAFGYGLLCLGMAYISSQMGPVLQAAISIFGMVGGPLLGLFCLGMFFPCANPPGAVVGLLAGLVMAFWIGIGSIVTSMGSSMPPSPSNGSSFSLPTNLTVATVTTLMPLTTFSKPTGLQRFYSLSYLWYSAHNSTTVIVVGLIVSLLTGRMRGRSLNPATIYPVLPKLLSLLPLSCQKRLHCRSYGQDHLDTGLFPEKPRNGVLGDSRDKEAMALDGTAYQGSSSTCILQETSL", "assay": "Transport currents in SMVT-expressing Xenopus oocytes, normalized to biotin", "assay_type": "cell-based", "conditions": "response relative to biotin, transporter-expressing oocytes, test compound 0.5 mM", "description": "The complete open reading frame of human ATBO+(SLC6A14) and SMVT (SLC5A6) were amplified from human cDNA prepared from liver or intestine mRNA. Gene-specific oligonucleotide primers were designed against Genbank sequences (AF151978 and NM-021095). Amplified PCR products were cloned into a modified version of the mammalian expression vector pcDNA3 (termed pMO) that was engineered to contain the 5′ and 3′ untranslated regions from the Xenopus beta-globin gene. All clones were completely sequenced and tested for function by transient transfection in HEK293 cells.\ncRNA for oocyte expression was prepared by linearization of plasmid cDNA and in vitro transcription using T7 polymerase (Epicentre Ampliscribe kit). Xenopus oocytes were prepared and maintained as previously described (Collins et al., PNAS […]:5456-5460 (1997)) and injected with 10-30 ng RNA. Transport currents were measured 2-6 days later using two-electrode voltage-clamp (Axon Instruments). All experiments were performed using a modified oocyte Ringers solution (90 mM NaCl, 2 mM KCl, 1.8 mM CaCl2, 1 mM MgCl2, and 10 mM Na HEPES, pH 7.4; in Na^+-free solutions 90 mM choline chloride was substituted for NaCl). The membrane potential of oocytes was held at −60 mV and current traces acquired using PowerLab software (AD Instruments). Full 7-concentration dose-responses were performed for each compound. […] Half-maximal concentrations were calculated using non-linear regression curve fitting software (Prism) with the Hill co-efficient fixed to 1. To ensure that currents were specific for the over-expressed transporter, all compounds were tested against uninjected oocytes. Since both ATBO+ and SMVT require Na^+ for transport, we confirmed transport specificity by application of the compounds in a Na^+-free solution.\nIn vitro transport data for selected compounds on hSMVT-expressing cells"}, "[2]": {"assay": "Uptake into plasma of Compound V following oral and intracolonic administration", "assay_type": "in vivo, rat", "conditions": "FIG. 4", "experimental": "Rats were obtained commercially and were pre-cannulated in the both the ascending colon and the jugular vein. Animals were conscious at the time of the experiment. All animals were fasted overnight and until 4 hours post-dosing. Prodrugs were administered as a solution (in water or polyethylene glycol 400) directly into the colon via the cannula at a dose equivalent to 25 mg of gabapentin per kg. Blood samples (0.5 mL) were obtained from the jugular cannula at intervals over 8 hours and were quenched immediately by addition of acetonitrile/methanol to prevent further conversion of the prodrug. Blood samples were analyzed as described in the attached sample analysis summary.\nFIG. 4 compares uptake into the plasma of Compound V following oral and intracolonic administration. […] The levels from oral and colonic administration cross at about 7 hr."}}, "data": [{"smiles": "CC(C)(N)C(=O)NCC1(CC(=O)O)CCCCC1", "note": "[Compound V, a-aminoisobutyryl gabapentin]", "values": [{"measurement": "% Max. (Biotin)", "setting": "[1]", "value": 36, "unit": "%"}, {"measurement": "Plasma peak after colonic dosing compared with oral", "setting": "[2]; intracolonic versus oral", "value": "lower peak at a later time"}, {"measurement": "Time at which plasma levels from oral and colonic administration cross", "setting": "[2]; oral versus intracolonic", "value": "about 7 hr"}]}]}
